#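 Tested at 5 concentrations; 48 h exposure; 96-well plates; endpoints linearly interpolated, else capped at highest concentration. TGI denotes the concentration required for complete inhibition of growth.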
# Columns and labels:
# Assay in all cases: growth of human tumour cells (NCI), 48 h
# ACHN renal = test system: ACHN renal
# CAKI-1 renal = test system: CAKI-1 renal
# HS 578T breast = test system: HS 578T breast
# HT29 colon = test system: HT29 colon
# IGROV1 ovarian = test system: IGROV1 ovarian
# KM12 colon = test system: KM12 colon
# NCI-H460 lung = test system: NCI-H460 lung
# RPMI-8226 leukemia = test system: RPMI-8226 leukemia
# SF-295 CNS = test system: SF-295 CNS
# SK-MEL-2 melanoma = test system: SK-MEL-2 melanoma
# SK-MEL-5 melanoma = test system: SK-MEL-5 melanoma
# SN12C renal = test system: SN12C renal
# UO-31 renal = test system: UO-31 renal
Compound,TGI (ACHN renal),TGI (CAKI-1 renal),TGI (HS 578T breast),TGI (HT29 colon),TGI (IGROV1 ovarian),TGI (KM12 colon),TGI (NCI-H460 lung),TGI (RPMI-8226 leukemia),TGI (SF-295 CNS),TGI (SK-MEL-2 melanoma),TGI (SK-MEL-5 melanoma),TGI (SN12C renal),TGI (UO-31 renal)
CC(=O)N1C(C(=O)NNc2ccccc2)CSC1c1ccccc1 (centres undefined),> 100 µM,> 100 µM,> 100 µM,> 100 µM,> 100 µM,> 100 µM,> 100 µM,> 100 µM,> 100 µM,> 100 µM,> 100 µM,> 100 µM,> 100 µM
CC(C)/C(Cl)=N\OC(=O)Nc1ccc(F)c([N+](=O)[O-])c1,3.39 µM,3.27 µM,25.1 µM,35.3 µM,13.5 µM,28.5 µM,7.89 µM,4.87 µM,37.9 µM,29.9 µM,22.4 µM,16.5 µM,17.9 µM
O=c1c2ccccc2c2c1c1c3ccccc3c(=O)c1c1c3ccccc3c(=O)c21,> 100 µM,> 100 µM,> 100 µM,> 100 µM,> 100 µM,> 100 µM,> 100 µM,> 100 µM,> 100 µM,> 100 µM,> 100 µM,> 100 µM,> 100 µM
COc1ccc(N2CCN(Cc3c(C(C)=O)[n+](=O)c4ccccc4n3[O-])CC2)cc1,> 100 µM,> 100 µM,> 100 µM,> 100 µM,> 100 µM,> 100 µM,> 100 µM,> 100 µM,> 100 µM,> 100 µM,> 100 µM,> 100 µM,> 100 µM
CCCN1CN(c2ccccc2)C2(CCN(CCCC(=O)c3ccc(F)cc3)CC2)C1=O,12.9 µM,41.1 µM,34.1 µM,7.02 µM,14.8 µM,31 µM,26.9 µM,42.2 µM,24.8 µM,25 µM,4.84 µM,15.5 µM,30.2 µM
O=C(O)CSc1nnc(CCCCCCCCc2nnc(SCC(=O)O)o2)o1,> 100 µM,> 100 µM,> 100 µM,> 100 µM,> 100 µM,> 100 µM,> 100 µM,> 100 µM,> 100 µM,> 100 µM,> 100 µM,> 100 µM,> 100 µM
O/N=C1/CCCCCC1NO (centres undefined),> 100 µM,> 100 µM,> 100 µM,> 100 µM,> 100 µM,> 100 µM,> 100 µM,> 100 µM,> 100 µM,> 100 µM,> 100 µM,> 100 µM,> 100 µM
O=Cc1[nH]c(=O)[nH]c(=O)c1CCl,> 100 µM,> 100 µM,> 100 µM,> 100 µM,> 100 µM,> 100 µM,99.5 µM,> 72.1 µM,> 100 µM,> 100 µM,> 100 µM,> 100 µM,> 100 µM

# — PubChem BioAssay (NCI)
